# In patent US12653817B2, “Pharmaceutical composition comprising protein kinase inhibitor and chemotherapeutic drug and use thereof” (SHENZHEN CHIPSCREEN BIOSCIENCES CO., LTD., priority 2020, dated 2026):
# “Also recorded” adds a separate entry of the source.
# Columns and labels:
# [1] = system: relapsed and refractory ovarian cancer; experiment: Phase Ib single-arm clinical trial of chiauranib capsules, efficacy; assay type: in vivo, human
# Description: A single-arm, multi-center, non-randomized, open-label phase Ib trial.
# Main inclusion criteria: Patients with histologically diagnosed epithelial ovarian cancer, fallopian tube cancer or primary peritoneal carcinoma; patients who had received platinum-based chemotherapy regimens, and platinum-resistant patients who achieved progressive or relapsed disease after had received ≥2 different chemotherapy regimens; platinum-sensitive patients who achieved progressive or relapsed disease after had received ≥2 different chemotherapy regimens, or who refused to receive further chemotherapy.
# (§1) Medication regimen: 50 mg of chiauranib was taken orally every morning on an empty stomach, once a day, every 28 days as a treatment cycle, and there was no drug withdrawal interval between the treatment cycles. The treatment was continued until any of the following conditions occurred (whichever occurred first): progressive disease, intolerable toxicity reaction, death, withdrawal of informed consent, or loss to follow-up.
# Efficacy indicators: The efficacy indicators were evaluated by investigators and imaging experts according to RECIST1.1 criteria.
# Main: Objective response rate (ORR).
# Secondary: Progression-free survival (PFS), time to progression (TTP), 16-week disease control rate (16W-DCR), duration of response (DOR) of disease, overall survival (OS).
# Twenty-five patients with relapsed and refractory ovarian cancer were enrolled in the study, and the number of previous treatment regimens they had received was ≥3. 3 cases (12.0%) were sensitive to the last platinum-containing chemotherapy, and 22 cases (88.0%) were refractory or resistant to the last platinum-containing chemotherapy. As of the cut-off date for trial data (Mar. 20, 2019), 16 patients (64.0%) discontinued the treatment due to progressive disease, 3 patients (12.0%) discontinued the treatment due to adverse events, and other reasons for the discontinuation of the treatment comprised voluntary withdrawal of subjects, end of trial and loss to follow-up.
# The full analysis set (FAS) and safety data set (SS) were used for analysis, and 25 subjects were included in each data set.
# [2] = Phase Ib single-arm clinical trial of chiauranib capsules, safety evaluation; assay type: in vivo
# Procedure: as §1
# The safety indicators comprised adverse events, vital signs, ECG and abnormal laboratory results, which were evaluated according to CTCAE V4.03. Twenty-five patients with relapsed and refractory ovarian cancer were enrolled in the study and included in the safety data set (SS) for analysis.
# [3] = system: platinum-refractory/resistant relapsed advanced ovarian cancer; conditions: historical data; cited from earlier work
# [4] = 25 patients, cut-off Mar. 20, 2019
# [5] = chiauranib 50 mg orally once a day, N = 25, cut-off Mar. 20, 2019
# [6] = increase in serum creatine phosphokinase MB, 25 subjects
smiles,measurement,setting,value
"COc1ccc2c(Oc3ccc4c(C(=O)Nc5ccccc5N)cccc4c3)ccnc2c1 [chiauranib, N-(2-aminophenyl)-6-(7-methoxyquinoline-4-oxy)-1-naphthamide]","Discontinued the treatment due to progressive disease, %",[1]; [4],64.0%
same,"Discontinued the treatment due to progressive disease, patients",[1]; [4],16 patients
same,"Duration of response, Event","[1]; N = 25, cut-off Mar. 20, 2019",0
same,"Overall survival, Event","[1]; N = 25, cut-off Mar. 20, 2019",11
same,"Progression-free survival, Event (progressive disease or death)","[1]; N = 25, cut-off Mar. 20, 2019",12
same,"Time to progression, Event","[1]; N = 25, cut-off Mar. 20, 2019",11
same,16-week disease control rate,"[1]; chiauranib 50 mg orally once a day, N = 25",32.0%
same,Objective response rate,"[1]; chiauranib 50 mg orally once a day, N = 25, RECIST1.1",4.0%
same,"Progression-free survival, median",[1]; [5],3.7 month
same,"Time to progression, median",[1]; [5],3.7 month
same,"Efficacy conclusion, single-agent",[1]; subjects with platinum-refractory/resistant relapsed ovarian cancer who had received multiple chemotherapies,shown preliminary efficacy in tumor response; also recorded: showed primary efficacy of tumor response
same,"Abdominal pain, %",[2]; 25 subjects,52.0%
same,"Abdominal pain, cases",[2]; 25 subjects,13 cases
same,"Adverse event leading to the discontinuation of the treatment, %",[2]; 25 subjects,12.0%
same,"Adverse event leading to the discontinuation of the treatment, patients",[2]; 25 subjects,3 patients
same,"Adverse event leading to the suspension of chiauranib, %",[2]; 25 subjects,40.7%
same,"Adverse event leading to the suspension of chiauranib, patients",[2]; 25 subjects,11 patients
same,"At least one common adverse event, %",[2]; 25 subjects,100%
same,"At least one common adverse event, subjects",[2]; 25 subjects,25 subjects
same,"Diarrhea, %",[2]; 25 subjects,72.0%
same,"Diarrhea, cases",[2]; 25 subjects,18 cases
same,Discontinuation due to bile duct obstruction,[2]; 25 subjects,"dysfunction syndrome, 1 case of bile duct"
same,Discontinuation due to electrolyte disturbance,[2]; 25 subjects,"obstruction, and 1 case of electrolyte"
same,"Fatigue, %",[2]; 25 subjects,64.0%
same,"Fatigue, cases",[2]; 25 subjects,16 cases
same,"Hypertension, %",[2]; 25 subjects,44.0%
same,"Hypertension, cases",[2]; 25 subjects,11 cases
same,"Loss of appetite, %",[2]; 25 subjects,64.0%
same,"Loss of appetite, cases",[2]; 25 subjects,16 cases
same,"Proteinuria, %",[2]; 25 subjects,60.0%
same,"Proteinuria, cases",[2]; 25 subjects,15 cases
same,Related serious adverse event: hypokalemia,[2]; 25 subjects,"electrolyte disturbance, 1 case of hypokalemia,"
same,"Serious adverse events judged to be related to chiauranib (definitely related, possibly related, undetermined), cases",[2]; 25 subjects,5 cases
same,Suspension due to decreased appetite,[2]; 25 subjects,"ventricular dysfunction, 1 case of infection, 1"
same,Suspension due to increased alanine aminotransferase,[2]; 25 subjects,1 case
same,Suspension due to infection,[2]; 25 subjects,"ventricular dysfunction, 1 case of infection, 1"
same,Suspension due to proteinuria,[2]; 25 subjects,2 cases
same,"Weight loss, %",[2]; 25 subjects,56.0%
same,"Weight loss, cases",[2]; 25 subjects,14 cases
same,"Serious adverse events, % of patients","[2]; 25 subjects, CTCAE V4.03",32.0%
same,"Serious adverse events, cases","[2]; 25 subjects, CTCAE V4.03",9 cases
same,"Serious adverse events, patients","[2]; 25 subjects, CTCAE V4.03",8 patients
same,"Adverse event leading to the reduction of the dosage of chiauranib, %",[2]; [6],4.0%
same,"Adverse event leading to the reduction of the dosage of chiauranib, patients",[2]; [6],One
same,"Adverse event leading to death, %","[2]; multiple organ dysfunction syndrome, 25 subjects",4.0%
same,"Adverse event leading to death, patients","[2]; multiple organ dysfunction syndrome, relation to chiauranib undetermined, 25 subjects",One
same,Tolerability of single-agent therapy,[2]; toxicity characteristics similar to VEGFR target drugs,can be tolerated by most subjects
CC(=O)O[C@H]1C(=O)[C@@]2(C)[C@H]([C@H](OC(=O)c3ccccc3)[C@]3(O)C[C@H](OC(=O)[C@H](O)[C@@H](NC(=O)c4ccccc4)c4ccccc4)C(C)=C1C3(C)C)[C@]1(OC(C)=O)CO[C@@H]1C[C@@H]2O [paclitaxel],Response rate of single-agent,[3],about 21%
COc1cc([C@@H]2c3cc4c(cc3[C@@H](O[C@@H]3O[C@@H]5CO[C@@H](C)O[C@H]5[C@H](O)[C@H]3O)[C@H]3COC(=O)[C@H]23)OCO4)cc(OC)c1O [etoposide],Response rate of single-agent,[3],about 27%
